From ChEMBL document CHEMBL3044984, “Synthesis of 2-(5, 7-Difluoro-3-indolyl)-propionic Acid (5, 7-F2-IPA) and 2-(5, 7-Difluoro-3-indolyl)isobutyric Acid (5, 7-F2-IIBA) and Their Respective Auxin and Antiauxin Activities” (2001)
Calls of active or inactive are those of the source. No cut-off for these calls is given here.

Key:
Avena sativa [1] = assay: Antiauxin activity in Avena sativa cv. Victory-1 assessed as auxin-induced growth inhibition at 3 x 10^-5 M; assay type: functional, organism-based
Avena sativa [2] = assay: Auxin activity in Avena sativa cv. Victory-1 assessed as coleoptile elongation; assay type: functional, organism-based
Avena sativa [3] = assay: Auxin activity in Avena sativa cv. Victory-1 assessed as increase of auxin-induced growth at 5.6 x 10^-5 M; assay type: functional, organism-based
Avena sativa [4] = assay: Auxin activity in Avena sativa cv. Victory-1 assessed as coleoptile elongation at 3 x 10^-6 M; assay type: functional, organism-based
Avena sativa [5] = assay: Antiauxin activity in Avena sativa cv. Victory-1 assessed as growth inhibition at 1 x 10^-4 M; assay type: functional, organism-based
Avena sativa [6] = assay: Antiauxin activity in Avena sativa cv. Victory-1 assessed as auxin-induced growth inhibition at 10^-5 to 10^-4 M; assay type: functional, organism-based
Avena sativa [7] = assay: Auxin activity in Avena sativa cv. Victory-1 assessed as increase of auxin-induced growth at 10^-5 M; assay type: functional
Avena sativa [8] = assay: Antiauxin activity in Avena sativa cv. Victory-1 assessed as growth inhibition; assay type: functional, organism-based

SMILES	Activity (Avena sativa [2])	Activity (Avena sativa [4])	growth inhibition (GI) (Avena sativa [5])	growth inhibition (GI) (Avena sativa [8])	further results
O=C(O)Cc1c[nH]c2ccccc12	Active				growth inhibition (GI) (Avena sativa [1]): Active; Activity (Avena sativa [3]): inactive
CC(C)(C(=O)O)c1c[nH]c2c(F)cc(F)cc12	Active	Active	Active		growth inhibition (GI) (Avena sativa [6]): Active; Activity (Avena sativa [7]): 80%
O=C(O)Cc1c[nH]c2c(F)cc(F)cc12				Active	
CC(C)(C(=O)O)c1c[nH]c2c(Cl)cc(Cl)cc12	inactive				
CC(C)(C(=O)O)c1c[nH]c2ccccc12				inactive	
CC(C(=O)O)c1c[nH]c2c(F)cc(F)cc12 (centres undefined)	Active	Active	Active		
